This is an account of results in US10022447B2, “Solid pharmaceutical compositions containing pregabalin” (Warner-Lambert Company LLC, priority 2005, dated 2018).

The data set is described as follows: Clinical studies of regional GI absorption of pregabalin. It is filed as in vivo. Particulars: humans. From the text:
Once daily dosing of pregabalin, however, presents numerous challenges. Conventional extended release (ER) compositions are problematic for QD dosing because pregabalin is not absorbed uniformly in the gastrointestinal (GI) tract. […] Furthermore, pregabalin is a γ-amino acid which under normal storage conditions may undergo intramolecular cyclization to form a lactam, 4-isobutyl-pyrrolidin-2-one. See, e.g., WO 99/10186 and WO 99/59573, both to A. Aomatsu. Although it is known that the non-active components of the pharmaceutical composition may affect lactam formation, it is difficult to predict which excipients may lead to undesirable lactam formation.

On to `CC(C)C[C@H](CN)CC(=O)O` [pregabalin, (S)-(+)-3-aminomethyl-5-methyl-hexanoic acid], for which the mean absorption window entry was “about six hours or less” and the “regional absorption in the GI tract” value was “poorly absorbed beyond the hepatic flexure”.
